Experimental data taken from PubChem BioAssay (NCI).
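1) Cells in 96-well plates. 2) Compound, 48 h, 5 concentrations. 3) Linear interpolation between surrounding doses. 4) Unreached endpoint = highest concentration. GI50: concentration for 50% inhibition of growth. TGI: concentration producing complete growth inhibition.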

Key:
Assay in all cases: DTP human tumour cell line panel, 48 h
786-0 renal = tested on: 786-0 renal
A498 renal = tested on: A498 renal
A549 NSCLC = tested on: A549 NSCLC
ACHN renal = tested on: ACHN renal
BT-549 breast = tested on: BT-549 breast
CAKI-1 renal = tested on: CAKI-1 renal
CCRF-CEM leukemia = tested on: CCRF-CEM leukemia
COLO 205 colon = tested on: COLO 205 colon
DU-145 prostate = tested on: DU-145 prostate
EKVX NSCLC = tested on: EKVX NSCLC
HCC-2998 colon = tested on: HCC-2998 colon
HCT-116 colon = tested on: HCT-116 colon
HCT-15 colon = tested on: HCT-15 colon
HOP-62 NSCLC = tested on: HOP-62 NSCLC
HOP-92 NSCLC = tested on: HOP-92 NSCLC
HS 578T breast = tested on: HS 578T breast
HT29 colon = tested on: HT29 colon
IGROV1 ovarian = tested on: IGROV1 ovarian
K-562 leukemia = tested on: K-562 leukemia
KM12 colon = tested on: KM12 colon
LOX IMVI melanoma = tested on: LOX IMVI melanoma
M14 melanoma = tested on: M14 melanoma
MALME-3M melanoma = tested on: MALME-3M melanoma
MCF7 breast = tested on: MCF7 breast
MDA-MB-231 breast = tested on: MDA-MB-231 breast
MDA-MB-435 = tested on: MDA-MB-435
MOLT-4 leukemia = tested on: MOLT-4 leukemia
NCI-H226 lung = tested on: NCI-H226 lung
NCI-H23 lung = tested on: NCI-H23 lung
NCI-H460 lung = tested on: NCI-H460 lung
NCI-H522 lung = tested on: NCI-H522 lung
NCI/ADR-RES ovarian = tested on: NCI/ADR-RES ovarian
OVCAR-3 ovarian = tested on: OVCAR-3 ovarian
OVCAR-4 ovarian = tested on: OVCAR-4 ovarian
OVCAR-5 ovarian = tested on: OVCAR-5 ovarian
OVCAR-8 ovarian = tested on: OVCAR-8 ovarian
PC-3 prostate = tested on: PC-3 prostate
RPMI-8226 leukemia = tested on: RPMI-8226 leukemia
RXF 393 renal = tested on: RXF 393 renal
SF-268 CNS = tested on: SF-268 CNS
SF-295 CNS = tested on: SF-295 CNS
SF-539 CNS = tested on: SF-539 CNS
SK-MEL-2 melanoma = tested on: SK-MEL-2 melanoma
SK-MEL-28 melanoma = tested on: SK-MEL-28 melanoma
SK-MEL-5 melanoma = tested on: SK-MEL-5 melanoma
SK-OV-3 ovarian = tested on: SK-OV-3 ovarian
SN12C renal = tested on: SN12C renal
SNB-19 CNS = tested on: SNB-19 CNS
SNB-75 CNS = tested on: SNB-75 CNS
SW-620 colon = tested on: SW-620 colon
T-47D breast = tested on: T-47D breast
TK-10 renal = tested on: TK-10 renal
U251 CNS = tested on: U251 CNS
UACC-257 melanoma = tested on: UACC-257 melanoma
UACC-62 melanoma = tested on: UACC-62 melanoma
UO-31 renal = tested on: UO-31 renal

O=C(CSC(c1ccccc1)c1ccccc1)N/N=C/c1ccco1
GI50 (786-0 renal): 1.83 µM | TGI (786-0 renal): 9.05 µM | GI50 (A498 renal): 1.89 µM | TGI (A498 renal): 5.37 µM | GI50 (A549 NSCLC): 1.54 µM | TGI (A549 NSCLC): 5.28 µM | GI50 (ACHN renal): 1.82 µM | TGI (ACHN renal): 3.62 µM | GI50 (BT-549 breast): 1.69 µM | TGI (BT-549 breast): 2.78 µM | GI50 (CAKI-1 renal): 4.7 µM | TGI (CAKI-1 renal): 23.2 µM | GI50 (CCRF-CEM leukemia): 2.48 µM | TGI (CCRF-CEM leukemia): 22 µM | GI50 (COLO 205 colon): 20.3 µM | TGI (COLO 205 colon): 52 µM | GI50 (DU-145 prostate): 2.69 µM | TGI (DU-145 prostate): > 4.92 µM | GI50 (EKVX NSCLC): 2.44 µM | TGI (EKVX NSCLC): > 5.19 µM | GI50 (HCC-2998 colon): 1.62 µM | TGI (HCC-2998 colon): 3.58 µM | GI50 (HCT-116 colon): 1.46 µM | TGI (HCT-116 colon): 2.98 µM | GI50 (HCT-15 colon): 2.12 µM | TGI (HCT-15 colon): 4.38 µM | GI50 (HOP-62 NSCLC): 1.84 µM | TGI (HOP-62 NSCLC): 3.84 µM | GI50 (HOP-92 NSCLC): 1.44 µM | TGI (HOP-92 NSCLC): 2.97 µM | GI50 (HS 578T breast): 2.23 µM | TGI (HS 578T breast): 5.82 µM | GI50 (HT29 colon): 18.7 µM | TGI (HT29 colon): 48.3 µM | TGI (IGROV1 ovarian): 1.41 µM | GI50 (K-562 leukemia): 2.16 µM | TGI (K-562 leukemia): 8.74 µM | GI50 (KM12 colon): 2.03 µM | TGI (KM12 colon): 15.5 µM | GI50 (LOX IMVI melanoma): 1.48 µM | TGI (LOX IMVI melanoma): 5.2 µM | GI50 (M14 melanoma): 1.49 µM | TGI (M14 melanoma): 2.69 µM | GI50 (MALME-3M melanoma): 1.53 µM | TGI (MALME-3M melanoma): 2.94 µM | GI50 (MCF7 breast): 1.74 µM | TGI (MCF7 breast): > 5.22 µM | GI50 (MDA-MB-231 breast): 1.35 µM | TGI (MDA-MB-231 breast): 2.87 µM | GI50 (MDA-MB-435): 2.01 µM | TGI (MDA-MB-435): 11.5 µM | GI50 (MOLT-4 leukemia): 1.64 µM | TGI (MOLT-4 leukemia): 4.48 µM | GI50 (NCI-H226 lung): 3 µM | TGI (NCI-H226 lung): 17.1 µM | GI50 (NCI-H23 lung): 1.6 µM | TGI (NCI-H23 lung): 4.46 µM | GI50 (NCI-H460 lung): 2.16 µM | TGI (NCI-H460 lung): 12.8 µM | GI50 (NCI-H522 lung): 1.4 µM | TGI (NCI-H522 lung): 4.49 µM | TGI (NCI/ADR-RES ovarian): 1.24 µM | GI50 (OVCAR-3 ovarian): 1.92 µM | TGI (OVCAR-3 ovarian): 3.49 µM | GI50 (OVCAR-4 ovarian): 1.73 µM | TGI (OVCAR-4 ovarian): 6.49 µM | GI50 (OVCAR-5 ovarian): 1.97 µM | TGI (OVCAR-5 ovarian): 5.24 µM | GI50 (OVCAR-8 ovarian): 1.84 µM | TGI (OVCAR-8 ovarian): 6.67 µM | GI50 (PC-3 prostate): 2.03 µM | TGI (PC-3 prostate): 9 µM | GI50 (RPMI-8226 leukemia): 1.94 µM | TGI (RPMI-8226 leukemia): 4.45 µM | GI50 (RXF 393 renal): 1.25 µM | TGI (RXF 393 renal): 3.32 µM | GI50 (SF-268 CNS): 2.25 µM | TGI (SF-268 CNS): > 12.5 µM | GI50 (SF-295 CNS): 2.4 µM | TGI (SF-295 CNS): 12.5 µM | GI50 (SF-539 CNS): 2.07 µM | TGI (SF-539 CNS): 7.55 µM | GI50 (SK-MEL-2 melanoma): 1.4 µM | TGI (SK-MEL-2 melanoma): 3.76 µM | GI50 (SK-MEL-28 melanoma): 20.8 µM | TGI (SK-MEL-28 melanoma): 50.7 µM | GI50 (SK-MEL-5 melanoma): 1.5 µM | TGI (SK-MEL-5 melanoma): 6.41 µM | GI50 (SK-OV-3 ovarian): 28.3 µM | TGI (SK-OV-3 ovarian): > 73 µM | GI50 (SN12C renal): 17.2 µM | TGI (SN12C renal): 35.7 µM | GI50 (SNB-19 CNS): 36 µM | TGI (SNB-19 CNS): > 100 µM | GI50 (SNB-75 CNS): 17.1 µM | TGI (SNB-75 CNS): 58.1 µM | GI50 (SW-620 colon): 2.9 µM | TGI (SW-620 colon): > 11.6 µM | GI50 (T-47D breast): 28.3 µM | TGI (T-47D breast): > 100 µM | GI50 (TK-10 renal): 2.21 µM | TGI (TK-10 renal): 7.62 µM | GI50 (U251 CNS): 1.77 µM | TGI (U251 CNS): 3.21 µM | TGI (UACC-257 melanoma): 0.935 µM | GI50 (UACC-62 melanoma): 2.52 µM | TGI (UACC-62 melanoma): 16.2 µM | GI50 (UO-31 renal): 2.03 µM | TGI (UO-31 renal): 10.3 µM
